Read-outs that look alike come from different tables or passages of the source.
Tests used:
[1] = biological target: human GLP-1R (Homo sapiens, UniProt P43220, G168S); test: CHO GLP-1R Clone H6 - Assay 1 (HTRF cAMP agonist assay); assay type: cell-based; conditions: for EC50: CHO GLP-1R Clone H6, cAMP HTRF, geometric mean; for Emax / Assay 1 Emax (%): CHO GLP-1R Clone H6, arithmetic mean, relative to saturating GLP-1 (1 μM)
Description: GLP-1R-mediated agonist activity was determined with a cell-based functional assay utilizing an HTRF (Homogeneous Time-Resolved Fluorescence) cAMP detection kit (cAMP HI Range Assay Kit; CisBio cat #62AM6PEJ) that measures cAMP levels in the cell. The method is a competitive immunoassay between native cAMP produced by the cells and exogenous cAMP labeled with the dye d2. The tracer binding is visualized by a mAb anti-cAMP labeled with Cryptate. The specific signal (i.e. energy transfer) is inversely proportional to the concentration of cAMP in either standard or experimental sample.
The human GLP-1R coding sequence (NCBI Reference Sequence NP_002053.3, including naturally-occurring variant Gly168Ser) was subcloned into pcDNA3 (Invitrogen) and a cell line stably expressing the receptor was isolated (designated Clone H6).
Cells were removed from cryopreservation, re-suspended in 40 mL of Dulbecco's Phosphate Buffered Saline (DPBS—Lonza Cat #17-512Q) and centrifuged at 800×g for 5 minutes at 22° C. The cell pellet was then re-suspended in 10 mL of growth medium [DMEM/F12 1:1 Mixture with HEPES, L-Gln, 500 mL (DMEM/F12 Lonza Cat #12-719F), 10% heat inactivated fetal bovine serum (Gibco Cat #16140-071), 5 mL of 100× Pen-Strep (Gibco Cat #15140-122), 5 mL of 100×L-Glutamine (Gibco Cat #25030-081) and 500 μg/mL Geneticin (G418) (Invitrogen #10131035)]. A 1 mL sample of the cell suspension in growth media was counted on a Becton Dickinson ViCell to determine cell viability and cell count per mL. The remaining cell suspension was then adjusted with growth media to deliver 2000 viable cells per well using a Matrix Combi Multidrop reagent dispenser, and the cells were dispensed into a white 384 well tissue culture treated assay plate (Corning 3570). The assay plate was then incubated for 48 hours at 37° C. in a humidified environment in 5% carbon dioxide.
Varying concentrations of each compound to be tested (in DMSO) were diluted in assay buffer (HBSS with Calcium/Magnesium (Lonza/BioWhittaker cat #10-527F)/0.1% BSA (Sigma Aldrich cat # A7409-1L)/20 mM HEPES (Lonza/BioWhittaker cat #17-737E) containing 100 μM 3-isobutyl-1-methylxanthin (IBMX; Sigma cat #15879). The final DMSO concentration is 1%.
After 48 hours, the growth media was removed from the assay plate wells, and the cells were treated with 20 μL of the serially diluted compound in assay buffer for 30 minutes at 37° C. in a humidified environment in 5% carbon dioxide. Following the 30 minute incubation, 10 μL of labeled d2 cAMP and 10 μL of anti-cAMP antibody (both diluted 1:20 in cell lysis buffer; as described in the manufacturer's assay protocol) were added to each well of the assay plate. The plates were then incubated at room temperature and after 60 minutes, changes in the HTRF signal were read with an Envision 2104 multi-label plate reader using excitation of 330 nm and emissions of 615 and 665 nm. Raw data were converted to nM cAMP by interpolation from a cAMP standard curve (as described in the manufacturer's assay protocol) and the percent effect was determined relative to a saturating concentration of the full agonist GLP-17-36 (1 μM) included on each plate. EC50 determinations were made from agonist dose-response curves analyzed with a curve fitting program using a 4-parameter logistic dose response equation.

[2] = biological target: human GLP-1R (Homo sapiens (Human), UniProt P43220, L260F); test: CHO GLP-1R Clone C6 - Assay 2 (HTRF cAMP agonist assay, low receptor density); conditions: for Emax: read-out: Assay 2 Emax (%), CHO GLP-1R Clone C6 (low receptor density), arithmetic mean, relative to saturating GLP-1 (1 μM)
human GLP-1R (Homo sapiens (Human), UniProt P43220, L260F), sequence (P43220 24-463 L260F): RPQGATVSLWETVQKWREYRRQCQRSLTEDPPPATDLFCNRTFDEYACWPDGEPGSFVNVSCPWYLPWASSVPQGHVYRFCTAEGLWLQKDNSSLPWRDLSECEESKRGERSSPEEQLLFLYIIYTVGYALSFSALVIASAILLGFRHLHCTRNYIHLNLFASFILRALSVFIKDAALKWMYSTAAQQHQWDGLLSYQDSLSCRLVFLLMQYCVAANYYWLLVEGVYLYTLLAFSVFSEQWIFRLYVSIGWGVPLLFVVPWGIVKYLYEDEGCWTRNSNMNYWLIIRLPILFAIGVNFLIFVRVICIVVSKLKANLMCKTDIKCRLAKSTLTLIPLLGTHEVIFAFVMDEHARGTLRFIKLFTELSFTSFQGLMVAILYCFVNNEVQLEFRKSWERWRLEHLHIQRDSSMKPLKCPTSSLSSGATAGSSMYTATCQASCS
Description: CHO GLP-1R Clone C6—Assay 2
GLP-1R-mediated agonist activity was determined with a cell-based functional assay utilizing an HTRF (Homogeneous Time-Resolved Fluorescence) cAMP detection kit (cAMP HI Range Assay Kit; Cis Bio cat #62AM6PEJ) that measures cAMP levels in the cell. The method is a competitive immunoassay between native cAMP produced by the cells and exogenous cAMP labeled with the dye d2. The tracer binding is visualized by a mAb anti-cAMP labeled with Cryptate. The specific signal (i.e. energy transfer) is inversely proportional to the concentration of cAMP in either a standard or an experimental sample.
The human GLP-1R coding sequence (NCBI Reference Sequence NP_002053.3, including naturally-occurring variant Leu260Phe) was subcloned into pcDNA5-FRT-TO and a clonal CHO cell line stably expressing a low receptor density was isolated using the Flp-In™ T-Rex™ System, as described by the manufacturer (ThermoFisher).
Cells were removed from cryopreservation, re-suspended in 40 mL of Dulbecco's Phosphate Buffered Saline (DPBS—Lonza Cat #17-512Q) and centrifuged at 800×g for 5 minutes at 22° C. The DPBS was aspirated, and the cell pellet was re-suspended in 10 mL of complete growth medium (DMEM:F12 1:1 Mixture with HEPES, L-Gln, 500 mL (DMEM/F12 Lonza Cat #12-719F), 10% heat inactivated fetal bovine serum (Gibco Cat #16140-071), 5 mL of 100× Pen-Strep (Gibco Cat #15140-122), 5 mL of 100×L-Glutamine (Gibco Cat #25030-081), 700 μg/mL Hygromycin (Invitrogen Cat #10687010) and 15 μg/mL Blasticidin (Gibco Cat # R21001). A 1 mL sample of the cell suspension in growth media was counted on a Becton Dickinson ViCell to determine cell viability and cell count per mL. The remaining cell suspension was then adjusted with growth media to deliver 1600 viable cells per well using a Matrix Combi Multidrop reagent dispenser, and the cells were dispensed into a white 384 well tissue culture treated assay plate (Corning 3570). The assay plate was then incubated for 48 hours at 37° C. in a humidified environment (95% O2, 5% CO2)
Varying concentrations of each compound to be tested (in DMSO) were diluted in assay buffer [HBSS with Calcium/Magnesium (Lonza/BioWhittaker cat #10-527F)/0.1% BSA (Sigma Aldrich cat # A7409-1L)/20 mM HEPES (Lonza/BioWhittaker cat #17-737E)] containing 100 μM 3-isobutyl-1-methylxanthin (IBMX; Sigma cat #15879). The final DMSO concentration in the compound/assay buffer mixture is 1%.
After 48 hours, the growth media was removed from the assay plate wells, and the cells were treated with 20 μL of the serially diluted compound in assay buffer for 30 minutes at 37° C. in a humidified environment (95% O2, 5% CO2). Following the 30 minute incubation, 10 μL of labeled d2 cAMP and 10 μL of anti-cAMP antibody (both diluted 1:20 in cell lysis buffer; as described in the manufacturer's assay protocol) were added to each well of the assay plate. The plates were then incubated at room temperature and after 60 minutes, changes in the HTRF signal were read with an Envision 2104 multi-label plate reader using excitation of 330 nm and emissions of 615 and 665 nm. Raw data were converted to nM cAMP by interpolation from a cAMP standard curve (as described in the manufacturer's assay protocol) and the percent effect was determined relative to a saturating concentration of the full agonist GLP-1 (1 μM) included on each plate. EC50 determinations were made from agonist dose response curves analyzed with a curve fitting program using a 4-parameter logistic dose response equation.

[3] = read-out: Assay 2 EC50, CHO GLP-1R Clone C6 (low receptor density), cAMP HTRF, geometric mean
[4] = Assay 2 EC50 (nM), CHO GLP-1R Clone C6 (low receptor density), cAMP HTRF, geometric mean
[5] = EC50 in Assay 2, CHO GLP-1R Clone C6, cAMP, geometric mean of replicates

human GLP-1R (Homo sapiens, UniProt P43220, G168S), sequence (P43220 24-463 G168S limits assumed): as the sequence (P43220 24-463 L260F) above, with G145S, F237L counted along it

Structure (SMILES)	EC50 [1] [nM]	Emax [1] [%]	EC50 [2, 3] [nM]	Emax [2] [%]	EC50 [2, 4] [nM]	EC50 [2, 5] [nM]	Assay 1 Emax (%) [1] [%]
COCCn1c(CN2CCC(c3cccc4c3OC(c3ccc(C#N)cc3F)O4)CC2)nc2ccc(C(=O)O)cc21 (stereo not drawn) [Example 27, 2-({4-[2-(4-cyano-2-fluorophenyl)-1,3-benzodioxol-4-yl]piperidin-1-yl}methyl)-1-(2-methoxyethyl)-1H-benzimidazole-6-carboxylic acid]	61	98	1000	100			
COCCn1cnnc1Cn1c(CN2CCC(c3cccc4c3OC(C)(c3ccc(Cl)cc3F)O4)CC2)nc2ccc(C(=O)O)cc21 (stereo not drawn) [Example 70, 2-({4-[2-(4-chloro-2-fluorophenyl)-2-methyl-1,3-benzodioxol-4-yl]piperidin-1-yl}methyl)-1-{[4-(2-methoxyethyl)-4H-1,2,4-triazol-3-yl]methyl}-1H-benzimidazole-6-carboxylic acid]	2.8	100	97	100			
CC1(c2ccc(Cl)cn2)Oc2cccc(C3CCN(Cc4nc5ccc(C(=O)O)cc5n4C[C@@H]4CCO4)CC3)c2O1 (single isomer, unassigned) [Example 10]		99		96			
CC1(c2ccc(Cl)cc2F)Oc2cccc(C3CCN(Cc4nc5ccc(C(=O)O)cc5n4Cc4ncco4)CC3)c2O1 (stereo not drawn) [Example 80, 2-({4-[2-(4-chloro-2-fluorophenyl)-2-methyl-1,3-benzodioxol-4-yl]piperidin-1-yl}methyl)-1-(1,3-oxazol-2-ylmethyl)-1H-benzimidazole-6-carboxylic acid]	1.1	87	6.9	96			
C[C@]1(c2ccc(Cl)cc2F)Oc2cccc(C3CCN(Cc4nc5ccc(C(=O)O)cc5n4C[C@@H]4CCO4)CC3)c2O1 [Example 7, Ammonium 2-({4-[(2S)-2-(4-chloro-2-fluorophenyl)-2-methyl-1,3-benzodioxol-4-yl]piperidin-1-yl}methyl)-1-[(2S)-oxetan-2-ylmethyl]-1H-benzimidazole-6-carboxylate]	0.26	98		93	3.1	2.9	
CN(C)CCn1c(CN2CCC(c3cccc4c3OC(C)(c3ccc(Cl)cc3F)O4)CC2)nc2ccc(C(=O)O)cc21 (stereo not drawn) [Example 12, 2-({4-[2-(4-Chloro-2-fluorophenyl)-2-methyl-1,3-benzodioxol-4-yl]piperidin-1-yl}methyl)-1-[2-(dimethylamino)ethyl]-1H-benzimidazole-6-carboxylic Acid]	29	83		92	690		
CN(C)C(=O)Cn1c(CN2CCC(c3cccc4c3OC(C)(c3ccc(Cl)cc3F)O4)CC2)nc2ccc(C(=O)O)cc21 (stereo not drawn) [Example 66, 2-({4-[2-(4-chloro-2-fluorophenyl)-2-methyl-1,3-benzodioxol-4-yl]piperidin-1-yl}methyl)-1-[2-(dimethylamino)-2-oxoethyl]-1H-benzimidazole-6-carboxylic acid]	51	82	850	74			
CN(C)C(=O)CCn1c(CN2CCC(c3cccc4c3OC(C)(c3ccc(Cl)cc3F)O4)CC2)nc2ccc(C(=O)O)cc21 (stereo not drawn) [Example 59, 2-({4-[2-(4-chloro-2-fluorophenyl)-2-methyl-1,3-benzodioxol-4-yl]piperidin-1-yl}methyl)-1-[3-(dimethylamino)-3-oxopropyl]-1H-benzimidazole-6-carboxylic acid]	74	85	680	53			
COCCn1c(CN2CCN(c3cccc4c3OC(c3ccc(Cl)cc3F)O4)CC2)nc2ccc(C(=O)O)cc21 (single isomer, unassigned) [Example 2, 2-({4-[2-(4-Chloro-2-fluorophenyl)-1,3-benzodioxol-4-yl]piperazin-1-yl}methyl)-1-(2-methoxyethyl)-1H-benzimidazole-6-carboxylic Acid]	6.6			100	260		81
C[C@@]1(c2ccc(Cl)cc2F)Oc2cccc(C3CCN(Cc4nc5ccc(C(=O)O)cc5n4C[C@@H]4CCO4)CC3)c2O1 [Example 6, Ammonium 2-({4-[(2R)-2-(4-chloro-2-fluorophenyl)-2-methyl-1,3-benzodioxol-4-yl]piperidin-1-yl}methyl)-1-[(2S)-oxetan-2-ylmethyl]-1H-benzimidazole-6-carboxylate]	140	89		89	2400	2400	
CNC(=O)Cn1c(CN2CCC(c3cccc4c3OC(C)(c3ccc(Cl)cc3F)O4)CC2)nc2ccc(C(=O)O)cc21 (stereo not drawn) [Example 52, 2-({4-[2-(4-chloro-2-fluorophenyl)-2-methyl-1,3-benzodioxol-4-yl]piperidin-1-yl}methyl)-1-[2-(methylamino)-2-oxoethyl]-1H-benzimidazole-6-carboxylic acid]	32	85	570	80			
CC1(c2ccc(Cl)cc2F)Oc2c(F)ccc(C3CCN(Cc4nc5ccc(C(=O)O)cc5n4C[C@@H]4CCO4)CC3)c2O1 (single isomer, unassigned) [Example 96]	1.1	85		93	11		
COCCn1c(CN2CCC(c3cccc4c3OC(C)(c3ccc(F)c(F)c3)O4)CC2)nc2ccc(C(=O)O)cc21 (stereo not drawn) [Example 41, 2-({4-[2-(3,4-difluorophenyl)-2-methyl-1,3-benzodioxol-4-yl]piperidin-1-yl}methyl)-1-(2-methoxyethyl)-1H-benzimidazole-6-carboxylic acid]	91	78		74	2000		
CC1(c2ccc(Cl)cc2F)Oc2cccc(C3CCN(Cc4nc5ccc(C(=O)O)cc5n4Cc4cocn4)CC3)c2O1 (stereo not drawn) [Example 58, 2-({4-[2-(4-chloro-2-fluorophenyl)-2-methyl-1,3-benzodioxol-4-yl]piperidin-1-yl}methyl)-1-(1,3-oxazol-4-ylmethyl)-1H-benzimidazole-6-carboxylic acid]	4	98	23	88			
COCCn1c(CN2CCC(c3cccc4c3OC(C)(c3ccc(Cl)cn3)O4)CC2)nc2ccc(C(=O)O)cc21.N (stereo not drawn) [Example 92, ammonium 2-({4-[2-(5-chloropyridin-2-yl)-2-methyl-1,3-benzodioxol-4-yl]piperidin-1-yl}methyl)-1-(2-methoxyethyl)-1H-benzimidazole-6-carboxylate]	4.2		72	83			90
CC1(c2ccc(Cl)cc2F)Oc2cccc(C3CCN(Cc4nc5ccc(C(=O)O)cc5n4Cc4cccnc4)CC3)c2O1 (stereo not drawn) [Example 65, 2-({4-[2-(4-chloro-2-fluorophenyl)-2-methyl-1,3-benzodioxol-4-yl]piperidin-1-yl}methyl)-1-(pyridin-3-ylmethyl)-1H-benzimidazole-6-carboxylic acid]	1.2	99	11	99			
CC1(c2ccc(Cl)cc2F)Oc2cccc(C3CCN(Cc4nc5ccc(C(=O)O)cc5n4Cc4cnco4)CC3)c2O1 (stereo not drawn) [Example 69, 2-({4-[2-(4-chloro-2-fluorophenyl)-2-methyl-1,3-benzodioxol-4-yl]piperidin-1-yl}methyl)-1-(1,3-oxazol-5-ylmethyl)-1H-benzimidazole-6-carboxylic acid]	10	100	8.3	98			
CC1(c2ccc(Cl)cc2F)Oc2cccc(C3CCN(Cc4nc5ccc(C(=O)O)cc5n4CCn4ccnc4)CC3)c2O1 (stereo not drawn) [Example 50, 2-({4-[2-(4-chloro-2-fluorophenyl)-2-methyl-1,3-benzodioxol-4-yl]piperidin-1-yl}methyl)-1-[2-(1H-imidazol-1-yl)ethyl]-1H-benzimidazole-6-carboxylic acid]	12	87	140	92			
Cn1c(CN2CCC(c3cccc4c3O[C@@](C)(c3ccc(Cl)cc3F)O4)CC2)nc2ccc(C(=O)O)cc21 [Example 14, 2-({4-[(2S)-2-(4-Chloro-2-fluorophenyl)-2-methyl-1,3-benzodioxol-4-yl]piperidin-1-yl}methyl)-1-methyl-1H-benzimidazole-6-carboxylic Acid]	7	95	79	85			
Cn1cnc(Cn2c(CN3CCC(c4cccc5c4OC(C)(c4ccc(Cl)cc4F)O5)CC3)nc3ccc(C(=O)O)cc32)c1 (stereo not drawn) [Example 77, 2-({4-[2-(4-chloro-2-fluorophenyl)-2-methyl-1,3-benzodioxol-4-yl]piperidin-1-yl}methyl)-1-[(1-methyl-1H-imidazol-4-yl)methyl]-1H-benzimidazole-6-carboxylic acid]	53	89	1700	92			
CCn1nncc1Cn1c(CN2CCC(c3cccc4c3OC(C)(c3ccc(Cl)cc3F)O4)CC2)nc2ccc(C(=O)O)cc21 (stereo not drawn) [Example 76, 2-({4-[2-(4-chloro-2-fluorophenyl)-2-methyl-1,3-benzodioxol-4-yl]piperidin-1-yl}methyl)-1-[(1-ethyl-1H-1,2,3-triazol-5-yl)methyl]-1H-benzimidazole-6-carboxylic acid]	0.77	93	7.6	100			

Source: patent US10676465B2, “GLP-1 receptor agonists and uses thereof” (Pfizer Inc., priority 2018, dated 2020)
